Data on 25 compounds can be found in patent EP4775208A1, “USE OF PRMT5 INHIBITOR IN TREATMENT OF TUMORS OR CANCERS” (Apeiron Therapeutics (Hong Kong) Ltd., priority 2023, dated 2025).

The term IC50 denotes the concentration that gives 50% inhibition. A lower IC50 goes with greater potency.

Holding throughout (format): cell-based
Assay [1] concerns HCT-116 MTAP(-/-) deficient cells. The experiment in a line: Inhibition of proliferation of HCT-116 MTAP(-/-) deficient cells (Cell-Titer Glo). The settings on record: 8 days. A digest of the protocol: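 Cells in log-phase growth, RPMI-1640 with 10% FBS, seeded and left overnight at 37°C, 5% CO2. Compound tested at 0–10,000 nM (10 points, 3-fold, 0.1% DMSO) for 8 days at 37°C, 5% CO2. Viability read by CellTiter-Glo luminescence.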

The subject of assay [2] is HCT-116 MTAP wild-type cells. As to the kind of experiment: Inhibition of proliferation of HCT-116 MTAP wild-type cells (Cell-Titer Glo). The settings on record: 8 days. A digest of the protocol: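 MTAP wild-type HCT-116 cells were seeded, cultured overnight and then exposed to compound from 10,000 nM down in a 10-point, 3-fold series (0.1% DMSO). Plates were incubated 8 days at 37°C, 5% CO2. Proliferation was read by Cell-Titer Glo viability luminescence.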

In the next assay the test system is U87MG MTAP(-/-) cells. The experiment in a line: Inhibition of proliferation of U87MG MTAP(-/-) cells (CellTiter-Glo). The settings on record: cell proliferation, 6 days. As to the method:
Test 7: Assay for Inhibitory Activity of Compounds against U87MG MTAP(-/-) Cell Proliferation
Materials and Cells: The U87MG MTAP(-/-) cell line was purchased from ATCC (USA). Cell culture media, fetal bovine serum (FBS), and penicillin-streptomycin were purchased from Thermo Fisher Scientific (USA). 384-well plates were purchased from PerkinElmer (USA). The CellTiter-Glo assay kit was purchased from Promega (USA).
Cell Culture: U87MG MTAP(-/-) cells were cultured in a medium supplemented with 10% fetal bovine serum (FBS) and 1% penicillin-streptomycin at 37°C with 5% CO2. Only cells in the logarithmic growth phase were used for experiments.
Cell Proliferation Inhibition Assay: The antiproliferative activity of the compounds against U87MG MTAP(-/-) cells was assessed using the CellTiter-Glo assay kit. Cell suspensions were adjusted to the appropriate density and seeded into 384-well plates at a volume of 40 µL per well, then incubated overnight at 37°C with 5% CO2. Compounds (40 nL) were added to each well to achieve final concentrations ranging from 0 to 10,000 nM (starting concentration 10,000 nM, 3-fold serial dilutions, 10 dose points), with a final DMSO concentration of […]. The cell plates were incubated at 37°C with 5% CO2 for 6 days. Subsequently, 40 µL of CellTiter-Glo reagent was added to measure cell viability. Paclitaxel was used as a control compound.
On the technique in general: ATP-based viability assays read luminescence as a measure of living cells.

Regarding “4-amino-N-methyl-N-(6-(trifluoromethyl)-2, 3-dihydrobenzo[b]thi ophen-3-yl)imidazo[1, 5-a]quinoxaline-8-car boxamide [Example 43]”, the values for the 50% inhibitory concentration (IC50) (in assay [1]; in assay [2]; with U87MG MTAP(-/-) cells) were 22.4 nM, 2990 nM and 322 nM, respectively.
As to `C[C@H]1OC[C@@H](N(C)C(=O)c2ccc3nc(N)c4cncn4c3c2)c2ccc(F)cc21` (single isomer, unassigned) [Example 96], the IC50 in assay [1] (Homo sapiens, HCT-116, 192 h) stood at 6.6 nM; in assay [2] (Homo sapiens, HCT-116, 192 h) it was 1260 nM; in the assay with U87MG MTAP(-/-) cells (Homo sapiens, U-87 MG, 144 h), 91.1 nM.
On to `C[C@H]1OC[C@@H](N(C)C(=O)c2cc3c(cn2)nc(N)c2cncn23)c2ccc(C(F)(F)F)cc21` (single isomer, unassigned) [Example 98], for which the IC50 in assay [1] (Homo sapiens, HCT-116, 192 h) turned out to be 1.4 nM; in assay [2] (Homo sapiens, HCT-116, 192 h), 114 nM; with U87MG MTAP(-/-) cells (Homo sapiens, U-87 MG, 144 h) it was 14.2 nM.
`CN(C(=O)c1ccc2nc(N)c3cncn3c2c1)[C@@H]1COc2cc(S(F)(F)(F)(F)F)ccc21` (single isomer, unassigned) [Example 104] showed an IC50 in the assay with U87MG MTAP(-/-) cells (Homo sapiens, U-87 MG, 144 h) of 28.8 nM.
For the compound `C[C@H]1OC[C@@H](N(C)C(=O)c2ccc3nc(N)c4cncn4c3c2)c2ccc(C(F)(F)F)cc21` (single isomer, unassigned) [Example 106], the IC50 was 3.5 nM in assay [1] (Homo sapiens, HCT-116, 192 h); 145 nM in assay [2] (Homo sapiens, HCT-116, 192 h); 10 nM in the assay on U87MG MTAP(-/-) cells (Homo sapiens, U-87 MG, 144 h).
Consider `Cc1cc2nc(N)c3cncn3c2cc1C(=O)N(C)[C@@H]1COc2cc(C(F)(F)F)ccc21` [Example 15, (S)-4-amino-N,7-dime thyl-N-(6-(trifluoromethyl)-2,3-dihydrobenzofuran-3-yl)imidazo[1 ,5-a]quinoxaline-8-car boxamide], for which the IC50 in assay [1] (Homo sapiens, HCT-116, 192 h) was 3.5 nM; in assay [2] (Homo sapiens, HCT-116, 192 h) it was 282 nM; with U87MG MTAP(-/-) cells (Homo sapiens, U-87 MG, 144 h) it was 19.8 nM.
For `CC1OC[C@@H](N(C)C(=O)c2ccc3nc(N)c4cncn4c3c2)c2ccc(-c3cnn(C)c3)cc21` (stereo partly drawn) [Example 22, 4-amino-N-methyl-N-((4S)-1-methyl-7-(1-methyl-1H-pyrazol-4-yl)isochroman-4-yl)i midazo[1,5-a]quinoxa line-8-carboxamide], in that order: 5.1 nM, 1690 nM and 81.2 nM.
In the same order, the values of `CN(C(=O)c1cc2c(cc1F)nc(N)c1cncn12)[C@@H]1COc2cc(-c3cnn(C(F)(F)F)c3)ccc21` [Example 33, (S)-4-amino-7-fluoro-N-methyl-N-(6-(1-(trifluoromethyl)-1H-pyrazol-4-yl)-2,3-dihydrobenzofuran-3-yl)imid azo[1,5-a]quinoxaline-8-carboxamide] are 15.1 nM, 2660 nM and 81.7 nM.
In the case of `C[C@H]1OC[C@@H](N(C)C(=O)c2cc3c(cn2)nc(N)c2cncn23)c2ccc(C(F)(F)F)nc21` [Example 35, 4-amino-N-methyl-N-((5S,8R)-8-methyl-2-(trifluoromethyl)-5,8-dihydro-6H-pyrano[3,4-b]pyridin-5-yl)imida zo[1,5-a]pyrido[3,4-e] pyrazine-8-carboxamide], the IC50 in assay [1] (Homo sapiens, HCT-116, 192 h) came to 23.2 nM; in assay [2] (Homo sapiens, HCT-116, 192 h), 2230 nM; in the assay on U87MG MTAP(-/-) cells (Homo sapiens, U-87 MG, 144 h), 34.8 nM.
In the same order, the values of `CN(C(=O)c1cc2c(cc1C(F)(F)F)nc(N)c1cncn12)[C@@H]1COc2cc(C(F)(F)F)ccc21` [Example 36, (S)-4-amino-N-methy 1-7-(trifluoromethyl)-N-(6-(trifluoromethyl) -2,3-dihydrobenzofuran-3-yl)imidazo[1,5-a] quinoxaline-8-carbox amide] are 36 nM, 5130 nM and 343 nM.
On to `CN(C(=O)c1cc2c(cc1F)nc(N)c1cncn12)[C@@H]1COc2cc(S(C)(=O)=O)ccc21` [Example 38, (S)-4-amino-7-fluoro-N-methyl-N-(6-(methylsulfonyl)-2,3-dihydrobenzofuran-3-yl)imi dazo[1,5-a]quinoxaline-8-carboxamide], for which the IC50 worked out at 30 nM in assay [1] (Homo sapiens, HCT-116, 192 h); 4060 nM in assay [2] (Homo sapiens, HCT-116, 192 h); 443 nM in the assay with U87MG MTAP(-/-) cells (Homo sapiens, U-87 MG, 144 h).
On to `Cc1ncc2c(N)nc3ccc(C(=O)N(C)[C@@H]4COc5cc(C(F)(F)F)ccc54)cc3n12` [Example 39, (S)-4-amino-N,1-dime thyl-N-(6-(trifluoromethyl)-2,3-dihydrobenzofuran-3-yl)imidazo[1 ,5-a]quinoxaline-8-carboxamide], for which the IC50 in assay [1] (Homo sapiens, HCT-116, 192 h) came to 15.9 nM; in assay [2] (Homo sapiens, HCT-116, 192 h), 2040 nM; in the assay on U87MG MTAP(-/-) cells (Homo sapiens, U-87 MG, 144 h), 176 nM.
For `Cc1ncc(-c2ccc3c(c2)OC[C@H]3N(C)C(=O)c2cc3c(cc2F)nc(N)c2cncn23)cn1` [Example 40, (S)-4-amino-7-fluoro-N-methyl-N-(6-(2-methylpyrimidin-5-yl)-2,3-dihydrobenzofuran-3-yl)imidazo[1,5-a]qu inoxaline-8-carboxamide], in that order: 32.1 nM, 9200 nM and 153 nM.
For `CN(C(=O)c1ccc2nc(N)c3cncn3c2c1)C1COc2cc(S(F)(F)(F)(F)F)ccc21` (centres unmarked) [Example 45, 4-amino-N-methyl-N-(6-(pentafluoro-λ^6-sulfaneyl)-2,3-dihydrobenzofuran-3-yl)imidaz o[1,5-a]quinoxaline-8-carboxamide], in that order: 10.3 nM, 947 nM and 60.6 nM.
As for `CN(C(=O)c1ccc2nc(N)c3cncn3c2c1)[C@@H]1COc2cc(-c3cncc(C(F)(F)F)c3)ccc21` [Example 47, (S)-4-amino-N-methy 1-N-(6-(5-(trifluoromethyl)pyridin-3-yl)-2,3-dihydrobenzofuran-3-yl)imidazo[1,5-a]quin oxaline-8-carboxamide], the IC50 in assay [1] (Homo sapiens, HCT-116, 192 h) is 17.7 nM; in assay [2] (Homo sapiens, HCT-116, 192 h), 4100 nM; in the assay on U87MG MTAP(-/-) cells (Homo sapiens, U-87 MG, 144 h), 475 nM.
As for `CCN(C(=O)c1ccc2nc(N)c3cncn3c2c1)[C@@H]1COc2cc(C(F)(F)F)ccc21` [Example 55, (S)-4-amino-N-ethyl-N-(6-(trifluoromethyl) -2,3-dihydrobenzofuran-3-yl)imidazo[1,5-a] quinoxaline-8-carbox amide], the IC50 was 11.8 nM in assay [1] (Homo sapiens, HCT-116, 192 h); 1220 nM in assay [2] (Homo sapiens, HCT-116, 192 h); 74.9 nM in the assay with U87MG MTAP(-/-) cells (Homo sapiens, U-87 MG, 144 h).
In the same order, the values of `CN(C(=O)c1ccc2nc(N)c3cncn3c2c1)[C@@H]1COc2cc(OC(F)(F)F)ccc21` [Example 56, (S)-4-amino-N-methy 1-N-(6-(trifluoromethoxy)-2,3-dihydrobenzofuran-3-yl)imidazo[1,5-a]quinoxaline-8-car boxamide] are 15.9 nM, 1530 nM and 108 nM.
As for “(R)-4-amino-N-methy 1-N-(6-(pentafluoro-16 -sulfaneyl)-2,3-dihydr obenzofuran-3-yl)imi dazo[1,5-a]quinoxalin e-8-carboxamide [Example 103]”, the IC50 in assay [1] worked out at 931 nM; in assay [2], 6260 nM.
In the same order, the values of “(R)-4-amino-N-methy 1-N-(6-(trifluoromethy 1)-2,3-dihydrofuro[2,3 -b]pyridin-3-yl)imida zo[1,5-a]quinoxaline-8-carboxamide [Example 89]” are above 3000 nM and above 10000 nM.
In the same order, the values of “(S)-4-amino-N-(6-(cy clopropylsulfonyl)-2,3 -dihydrobenzo[b]thio phen-3-yl)-N-methyli midazo[1,5-a]quinoxa line-8-carboxamide [Example 133]” are 71.4 nM and above 10000 nM.
On to “(S)-4-amino-N-(6-bromo-2,3-dihydrobenzofuran-3-yl)-N-cyclopropylimidazo[1,5-a]quinoxaline-8-carboxamide [Example 82]”, for which the IC50 in assay [1] came out at 52.9 nM; in assay [2], 1920 nM.
As for “(S)-4-amino-N-(6-chl oro-2,3-dihydrobenzo furan-3-yl)-N-methyli midazo[1,5-a]quinoxa line-8-carboxamide [Example 70]”, the figures for the IC50 in assay [1] and in assay [2] were 54 nM and 3890 nM, respectively.
“(S)-4-amino-N-(6-cya no-2,3-dihydrobenzof uran-3-yl)-N-cyclopro pylimidazo[1,5-a]quin oxaline-8-carboxamid e [Example 92]”: the figures for the IC50 in assay [1] and in assay [2] were 46.6 nM and 4750 nM, respectively.
For “(S)-4-amino-N-cyclop ropyl-N-(6-(trifluoro methyl)-2,3-dihydrob enzofuran-3-yl)imidaz o[1,5-a]pyrido[3,4-e]p yrazine-8-carboxamid e [Example 88]”, in that order: 24.1 nM and 1850 nM.
In the case of “(S)-4-amino-N-methy 1-N-(6-(trifluoromethy 1)-2,3-dihydrofuro[2,3 -b]pyridin-3-yl)imida zo[1,5-a]quinoxaline-8-carboxamide [Example 90]”, the concentration for half-maximal inhibition (IC50) was 36.4 nM in assay [1] and above 10000 nM in assay [2].
